Measured values taken from patent US20220008425A1, “Pharmaceutical Composition for Treating B-Cell Lymphoma” (FUNDAN UNIVERSITY SHANGHAI CANER CENTER, priority 2018, published 2022).
Entries after “also recorded” stand apart in the source; their conditions may differ.

Assays:
[1] = test system: acute promyelocytic leukemia (APL); details: APL patients; ATRA alone; cited from earlier work
NU-DUL-1-RCHO cells [2] = assay: Aldefluor analysis (ALDH1+ cells); type: cell-based, human
Experimental: ALDH1 is a selectable marker for a variety of normal and cancer stem cells, including hematopoietic stem cells. Therefore, we assessed the number of cancer stem cells in hematopoietic malignancies by detecting ALDH1 positive cells. As previously described, we used an ALDEFLUOR™ kit (StemCell Technologies, Vancouver, BC, CA) to detect populations with high ALDH1 activity. Briefly, 1×10^6 cells were suspended in 1 mL of assay buffer containing 1 μM of BAAA, a substrate of […]. Suspended cells were then equally divided into two samples, one as a negative control and the other as a test sample. To form the negative control, […] of DEAB, a specific ALDH inhibitor, was added to one equally-divided sample. Cells were then incubated at 37° C. for 30 minutes prior to flow cytometry analysis.

[3] = test system: AKT phosphorylation, SOX2, FGFR1/2 and CSC-associated molecules in NU-DUL-1-RCHO cells; assay: Immunoblot analysis; type: cell-based, human
[4] = test system: SOX2 in tumor tissues grown from NU-DUL-1-RCHO-Luc cells; assay: SOX2 immunohistochemical staining of tumor tissues from the transplantation model; type: in vivo, SCID mice; details: tumors from NU-DUL-1-RCHO-Luc cells; compared with saline control
From the text: Construction of a transplantation model: we transduced LY8-RCHO cells and NU-DUL-1-RCHO cells with lentiviruses overexpressing the firefly luciferase gene to generate stable cells expressing firefly luciferase, referred to as LY8-RCHO-Luc cells and NU-DUL-1-RCHO-Luc cells, respectively. 8-week-old female SCID mice were purchased from SLAC (Shanghai laboratory animal center). The LY8-RCHO-Luc cells and NU-DUL-1-RCHO-Luc cells were resuspended in PBS prior to intraperitoneal injection of 1.5×10^7 cells per mouse. After intraperitoneal injection of the LY8-RCHO-Luc cells, mice were randomized into 6 groups (7 mice in every group) and given saline, R-CHOP, duvelisib, abemaciclib, R-CHOP+duvelisib, and R-CHOP+abemaciclib, respectively. Mice inoculated with the NU-DUL-1-RCHO-Luc cells were randomly divided into 6 groups (7 mice in every group), and were given saline, R-CHOP, duvelisib, AZD4547, R-CHOP+duvelisib, and R-CHOP+AZD4547, respectively. […] Tumor growth was monitored by bioluminescence at day 50 and day 90 after inoculation. For in vivo luminescence imaging, D-luciferin (Promega, Madison, Wis.) was intraperitoneally injected into mice (150 mg/kg). […] Luminescence images were captured with an exposure time of 30 seconds and the signal intensity of the tumor was measured by using Bruker MI software. The survival time of each mouse was recorded. […]
Tumor tissues from patients or animal models were fixed with 4% formalin, embedded in paraffin and sectioned. […] Immunoreactivity was then detected by using a GTVision III immunohistochemical detection kit (GK500705; Gene Tech Inc., Shanghai, China) according to its instructions. Quantitative scoring of immunostaining for SOX2, p-AKT, CDK6, FGFR1 and FGFR2 was performed on three independent sections under the microscope, according to the formula: score=3 (strong positive)×percentage+2 (medium positive)×percentage+1 (weak positive)×percentage+0 (negative)×percentage.

NU-DUL-1-RCHO cells [5] = assay: EdU cell proliferation assay; type: cell-based, human; details: 1 μM, time point (48 or 120 hours) not given
Experimental: RCHO-resistant DLBCL cells were pretreated with duvelisib, abemaciclib, or AZD4547 at a concentration of 1 μM for 48 or 120 hours prior to EdU assay. For 120 hours of the study, the medium was replaced with a fresh medium containing 1 μM of inhibitor at 48 hours. EdU cell proliferation assay was performed by using a cell-light EdU Apollo643 in vitro flow cytometry kit (RiboBio Inc., Guangzhou, China) according to its instructions. Next, we assayed EdU staining positive cells on a Cytomics FC500 MPL flow cytometer (Beckman Coulter, Brea, Calif.).

NU-DUL-1-RCHO cells [6] = details: 48 hours
Experimental: Further, we constructed LY8 and NU-DUL-1 cells resistant to chemotherapeutic drugs. Briefly, LY8-ORI and NU-DUL-1-ORI cells were treated with doxorubicin (Selleck Chemicals, Houston, Tex.) and vincristine (Selleck Chemicals, Houston, Tex.) at a clinical ratio of 50:1.4 by increasing the concentration. […] These cells were then treated with 2 μg/mL of 4-hydroperoxycyclophosphamide (4-HC) (Santa Cruz Biotechnology, Inc., Santa Cruz, Calif.) every 21 days for 3 cycles. The obtained CHO-resistant cells are referred to as LY8-CHO and NU-DUL-1-CHO, respectively. CHO-resistant cells were treated with doxorubicin, vincristine, and 4-HC every 22 days to maintain drug tolerance to CHO. […] To maintain RCHO resistance, LY8-RCHO cells and NU-DUL-1-RCHO cells were treated with 32 μg/mL of rituximab containing 20% (v/v) of NHS every 22 days, followed by treatment with doxorubicin, vincristine, and 4-HC. After 48 hours of treatment with doxorubicin, vincristine and 4-HC, drug resistance to CHO and RCHO was determined by a series of CCK-8 assays.
Cells were seeded in a 96-well plate at a density of 1×10^4/100 μL/well. Cells were pretreated with IPI-145, abemaciclib, AZD4547, PF-573228, R788, or saracatinib at increasing concentrations with or without CHO for 48 hours prior to performing CytoTox-Glo™ cytotoxicity assay. We performed cytotoxicity assay by using a CytoTox-Glo™ cytotoxicity assay kit (Promega Inc., Madison, Wis.) according to their instructions. Briefly, 50 μL of CytoTox-Glo™ cytotoxicity assay reagent was added to all wells, mixed by orbital shaking, and then incubated for 15 minutes at room temperature. Luminescence of experimental dead cells was detected with a Synergy HT microplate reader (BioTek, Biotek Winooski, Minn.), wherein 50 μL of lysate was added to all wells, mixed and incubated for 15 minutes at room temperature prior to detection of total luminescence. Cytotoxicity was calculated according to the following formula: Cytotoxicity (%)=Experimental dead cell luminescence/Total luminescence×100%.

NU-DUL-1-RCHO-Luc cells = assay: Transplantation model, bioluminescence tumor growth and survival; type: in vivo; details: SCID mice bearing NU-DUL-1-RCHO-Luc cells
From the text: Construction of a transplantation model: we transduced LY8-RCHO cells and NU-DUL-1-RCHO cells with lentiviruses overexpressing the firefly luciferase gene to generate stable cells expressing firefly luciferase, referred to as LY8-RCHO-Luc cells and NU-DUL-1-RCHO-Luc cells, respectively. 8-week-old female SCID mice were purchased from SLAC (Shanghai laboratory animal center). The LY8-RCHO-Luc cells and NU-DUL-1-RCHO-Luc cells were resuspended in PBS prior to intraperitoneal injection of 1.5×10^7 cells per mouse. After intraperitoneal injection of the LY8-RCHO-Luc cells, mice were randomized into 6 groups (7 mice in every group) and given saline, R-CHOP, duvelisib, abemaciclib, R-CHOP+duvelisib, and R-CHOP+abemaciclib, respectively. Mice inoculated with the NU-DUL-1-RCHO-Luc cells were randomly divided into 6 groups (7 mice in every group), and were given saline, R-CHOP, duvelisib, AZD4547, R-CHOP+duvelisib, and R-CHOP+AZD4547, respectively. The drug dosing method based on one course of clinical use is shown in Table 1; the R-CHOP regimen was clinically used to treat DLBCL, while duvelisib, abemaciclib, and AZD4547 were tested in clinical trials (associated NCT numbers are NCT02576275, NCT01739309, and […], respectively). Tumor growth was monitored by bioluminescence at day 50 and day 90 after inoculation. For in vivo luminescence imaging, D-luciferin (Promega, Madison, Wis.) was intraperitoneally injected into mice (150 mg/kg). After 10 minutes, the mice were anesthetized by intraperitoneal injection of pentobarbital (50 mg/kg) and then their bioluminescence intensity was examined by using an In Vivo MS FX PRO system (Bruker Corporation, Billerica, Mass.). Luminescence images were captured with an exposure time of 30 seconds and the signal intensity of the tumor was measured by using Bruker MI software. The survival time of each mouse was recorded. Surviving mice were euthanized and dissected 120 days after inoculation and no intraperitoneal tumors were found. Tumor tissue was collected from moribund mice and fixed with 4% formalin. All animal experiments were performed in strict accordance with the experiment protocol approved by the animal ethics committee of Shanghai school of medicine of Fudan university.

NU-DUL-1-RCHO cells [7] = assay: CDC assay (rituximab-mediated complement-dependent cytotoxicity); type: cell-based, human; details: pre-treated with inhibitor 24 hours, then rituximab and 20% NHS 2 hours
Experimental: We constructed LY8 cells and NU-DUL-1 cells that are resistant to rituximab-mediated complement-dependent cytotoxicity (CDC). Briefly, original LY8 (LY8-ORI) cells and original NU-DUL-1 (NU-DUL-1-ORI) cells were treated with rituximab containing 20% (v/v) of NHS (Roche, Basel, Switzerland) with a concentration of gradually increasing from 4 μg/mL to 32 μg/mL to construct drug-resistant cells. […] Cytolysis induced by CDC was evaluated by detection of positive cells stained with propidium iodide (PI) through fluorescence activated cell sorting (FACS).

SMILES	complete remission rate [1]	proportion of ALDH1+ cells (CSCs) (NU-DUL-1-RCHO cells [2])	levels of CSC-associated molecules (OCT4, NANOG, KLF4, c-MYC, CD34, CD133) [3]	SOX2 expression level in tumor tissue (IHC) [4]	cell proliferation (EdU incorporation) (NU-DUL-1-RCHO cells [5])	cytotoxicity (induction of cell death), inhibitor used alone (NU-DUL-1-RCHO cells [6]; inhibitor alone at increasing concentrations)	reversal of resistance to CHO (cytotoxicity of CHO), inhibitor co-treated with CHO (NU-DUL-1-RCHO cells [6]; inhibitor at increasing concentrations with CHO)	tumor growth (total photon flux) (NU-DUL-1-RCHO-Luc cells; inhibitor combined with R-CHOP, dosing per Table 1)	survival time (NU-DUL-1-RCHO-Luc cells; inhibitor combined with R-CHOP, experiment ended at day 120)	survival time (NU-DUL-1-RCHO-Luc cells; regimen or inhibitor used alone, dosing per Table 1)	effect on resistance to R-mediated CDC (NU-DUL-1-RCHO cells [7])
CC1=C(/C=C/C(C)=C/C=C/C(C)=C/C(=O)O)C(C)(C)CCC1 [ATRA, all-trans retinoic acid]	about 85%	–	–	–	–	–	–	–	–	–	–
COc1cc(CCc2cc(NC(=O)c3ccc(N4C[C@@H](C)N[C@@H](C)C4)cc3)n[nH]2)cc(OC)c1 [AZD4547]	–	significantly reduced ALDH1+ subpopulations in NU-DUL-1-RCHO cells, but to a greatly reduced extent compared with duvelisib	also reduced their levels but to a greatly reduced extent compared with duvelisib	significantly reduced the expression levels of SOX2 compared with a saline control	promoted proliferation of NU-DUL-1-RCHO cells due to involvement in inhibition of PI3K/AKT signaling, but to a lesser extent than PI3K inhibition	negligible effect on induction of cell death; also recorded: only negligible cytotoxicity on drug-resistant cells	restored sensitivity of RCHO-resistant cells to CHO; also recorded: significantly enhanced cytotoxicity of CHO	completely inhibit tumor growth	prolong the survival time to the end of the experiment at day 120	significantly prolonged the survival time	exacerbates resistance to R-mediated CDC
